Laboratory results taken from ChEMBL document CHEMBL1139181, “Design and synthesis of novel heterobiaryl amides as metabotropic glutamate receptor subtype 5 antagonists” (Bioorg Med Chem Lett, 2007).
pIC50, pKi: −log10 of the molar value.

What follows are molecules tested against Metabotropic glutamate receptor 5 (Rattus norvegicus, UniProt P31424) (assay: Displacement of [3H]MPEP from mGluR5 in rat brain membrane).
Assay type: cell membranes

Sequence of Metabotropic glutamate receptor 5 (Rattus norvegicus, UniProt P31424) (P31424 whole entry): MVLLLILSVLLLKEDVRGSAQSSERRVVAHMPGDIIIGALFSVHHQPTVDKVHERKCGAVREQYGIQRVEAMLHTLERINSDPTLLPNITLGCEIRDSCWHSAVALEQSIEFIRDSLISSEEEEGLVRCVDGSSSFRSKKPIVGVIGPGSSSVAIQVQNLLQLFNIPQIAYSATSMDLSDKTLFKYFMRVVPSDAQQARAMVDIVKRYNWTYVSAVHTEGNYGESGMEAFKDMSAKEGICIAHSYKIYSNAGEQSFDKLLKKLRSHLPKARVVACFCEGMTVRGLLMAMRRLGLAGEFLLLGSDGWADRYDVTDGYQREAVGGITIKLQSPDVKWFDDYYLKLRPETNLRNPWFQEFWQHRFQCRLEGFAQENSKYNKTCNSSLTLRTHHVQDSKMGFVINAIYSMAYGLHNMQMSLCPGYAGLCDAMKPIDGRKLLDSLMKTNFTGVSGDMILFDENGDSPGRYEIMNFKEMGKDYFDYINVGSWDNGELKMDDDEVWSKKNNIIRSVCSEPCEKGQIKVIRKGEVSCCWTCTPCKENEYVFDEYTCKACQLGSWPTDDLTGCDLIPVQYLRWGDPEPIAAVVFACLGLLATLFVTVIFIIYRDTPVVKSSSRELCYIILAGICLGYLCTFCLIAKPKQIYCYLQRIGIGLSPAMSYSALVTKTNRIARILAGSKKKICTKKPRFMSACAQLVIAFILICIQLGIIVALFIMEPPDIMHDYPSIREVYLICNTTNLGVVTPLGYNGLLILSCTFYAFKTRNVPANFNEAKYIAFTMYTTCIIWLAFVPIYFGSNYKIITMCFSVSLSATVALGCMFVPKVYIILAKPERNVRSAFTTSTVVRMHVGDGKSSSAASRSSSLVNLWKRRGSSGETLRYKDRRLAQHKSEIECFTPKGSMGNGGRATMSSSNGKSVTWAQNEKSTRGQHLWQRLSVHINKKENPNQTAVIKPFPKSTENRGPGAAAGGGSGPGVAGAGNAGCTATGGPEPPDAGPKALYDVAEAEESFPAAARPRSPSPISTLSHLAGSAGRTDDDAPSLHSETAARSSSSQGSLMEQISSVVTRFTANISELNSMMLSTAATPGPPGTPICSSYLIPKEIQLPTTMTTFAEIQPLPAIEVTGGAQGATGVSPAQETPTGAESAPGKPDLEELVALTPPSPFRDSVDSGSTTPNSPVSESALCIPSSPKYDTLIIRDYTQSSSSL

SMILES | pKi
Cc1cccc(NC(=O)c2cc(-c3cccc4ccccc34)ccn2)n1 | 6.60
Cc1cccc(NC(=O)c2cc(-c3cccc(C#N)c3)ccn2)n1 | 6.49
Cc1cccc(NC(=O)c2nccn2C)n1 | 5.51
Cc1cccc(NC(=O)c2nccc3ccccc23)n1 | 6.36
Cc1cccc(NC(=O)c2ccc(-c3ccccn3)cn2)n1 | 7.00

Other lines, results leading:

pKi | SMILES
6.30 | Cc1cccc(NC(=O)c2cc(-c3cccc(F)c3)ccn2)n1
5.55 | Cc1cccc(NC(=O)c2ccc(-c3ccccc3)cn2)n1
5.61 | Cc1cccc(NC(=O)c2cc(-c3ncccn3)ccn2)n1
< 5.00 | Cc1cccc(NC(=O)c2cccn2C)n1
6.25 | COc1ccccc1-c1ccc(C(=O)Nc2cccc(C)n2)nc1
7.37 | Cc1cccc(NC(=O)c2cc(-c3cc(F)cc(F)c3)ccn2)n1

Each molecule was assayed against Metabotropic glutamate receptor 5 (Rattus norvegicus) (UniProt P31424) (assay: Displacement of [3H]MPEP from mGluR5 in rat brain membrane at 10 uM).
Assay type: cell membranes

Sequence of Metabotropic glutamate receptor 5 (Rattus norvegicus) (P31424 21-1203 limits assumed): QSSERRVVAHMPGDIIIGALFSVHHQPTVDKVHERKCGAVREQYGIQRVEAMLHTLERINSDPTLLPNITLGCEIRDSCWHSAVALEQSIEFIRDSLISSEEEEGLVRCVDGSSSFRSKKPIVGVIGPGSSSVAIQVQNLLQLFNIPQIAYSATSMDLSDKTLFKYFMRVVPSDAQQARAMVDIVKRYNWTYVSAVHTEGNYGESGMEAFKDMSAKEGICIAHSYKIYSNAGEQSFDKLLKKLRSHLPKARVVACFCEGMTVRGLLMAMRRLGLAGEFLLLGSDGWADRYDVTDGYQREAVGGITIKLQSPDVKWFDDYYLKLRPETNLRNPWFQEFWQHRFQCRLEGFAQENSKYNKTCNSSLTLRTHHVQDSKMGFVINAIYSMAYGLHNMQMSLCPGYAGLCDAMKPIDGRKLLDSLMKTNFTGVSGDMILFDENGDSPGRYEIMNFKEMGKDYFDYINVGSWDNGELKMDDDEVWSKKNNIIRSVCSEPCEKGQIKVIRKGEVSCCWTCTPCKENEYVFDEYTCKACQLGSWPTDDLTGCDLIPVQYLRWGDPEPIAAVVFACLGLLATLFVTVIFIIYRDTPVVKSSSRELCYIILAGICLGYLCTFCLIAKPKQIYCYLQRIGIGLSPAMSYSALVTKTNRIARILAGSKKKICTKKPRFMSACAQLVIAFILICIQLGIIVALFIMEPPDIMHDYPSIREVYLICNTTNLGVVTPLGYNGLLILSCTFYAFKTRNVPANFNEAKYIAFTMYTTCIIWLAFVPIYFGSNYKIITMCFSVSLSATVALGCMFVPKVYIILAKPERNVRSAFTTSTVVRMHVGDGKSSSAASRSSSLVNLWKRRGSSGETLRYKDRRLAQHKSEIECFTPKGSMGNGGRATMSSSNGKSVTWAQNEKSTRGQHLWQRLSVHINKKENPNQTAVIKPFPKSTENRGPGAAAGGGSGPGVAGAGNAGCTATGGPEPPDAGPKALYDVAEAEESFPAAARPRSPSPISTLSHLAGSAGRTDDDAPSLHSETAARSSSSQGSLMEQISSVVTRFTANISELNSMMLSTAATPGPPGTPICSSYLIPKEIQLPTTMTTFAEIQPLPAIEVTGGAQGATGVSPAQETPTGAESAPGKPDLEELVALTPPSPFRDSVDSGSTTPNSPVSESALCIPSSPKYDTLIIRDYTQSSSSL

SMILES | Activity
Cc1cccc(NC(=O)c2csc(-c3ccccc3)n2)n1 | < 1%
Cc1cccc(NC(=O)c2ccc(-c3cccs3)cn2)n1 | 40%
COc1cccc(-c2ccnc(C(=O)Nc3cccc(C)n3)c2)c1 | 13%
Cc1cccc(NC(=O)c2cc(-c3ccc4ccccc4c3)ccn2)n1 | 32%
Cc1cccc(NC(=O)c2cc3ccccc3n2C)n1 | 8%
Cc1cccc(NC(=O)c2cc3ccccc3o2)n1 | 40%
Cc1cccc(NC(=O)c2cc3ccccc3s2)n1 | 11%
Cc1cccc(NC(=O)c2ccc(-c3cccc(C#N)c3)cn2)n1 | 7.4%

Next, values leading:

Activity | SMILES
28% | Cc1cccc(NC(=O)c2cc(Cl)ccn2)n1
91% | COc1ccccc1-c1ccnc(C(=O)Nc2cccc(C)n2)c1
< 1% | Cc1cccc(NC(=O)c2cc(-c3cccs3)ccn2)n1
< 1% | Cc1cccc(NC(=O)c2cc3ccccc3[nH]2)n1

The molecules below were run against Metabotropic glutamate receptor 5 (Homo sapiens, UniProt P41594) (assay: Antagonist activity at mGluR5 expressed in CHO cells assessed as phosphoinositide hydrolysis).
Assay type: functional, cell-based

Sequence of Metabotropic glutamate receptor 5 (Homo sapiens, UniProt P41594) (P41594 whole entry): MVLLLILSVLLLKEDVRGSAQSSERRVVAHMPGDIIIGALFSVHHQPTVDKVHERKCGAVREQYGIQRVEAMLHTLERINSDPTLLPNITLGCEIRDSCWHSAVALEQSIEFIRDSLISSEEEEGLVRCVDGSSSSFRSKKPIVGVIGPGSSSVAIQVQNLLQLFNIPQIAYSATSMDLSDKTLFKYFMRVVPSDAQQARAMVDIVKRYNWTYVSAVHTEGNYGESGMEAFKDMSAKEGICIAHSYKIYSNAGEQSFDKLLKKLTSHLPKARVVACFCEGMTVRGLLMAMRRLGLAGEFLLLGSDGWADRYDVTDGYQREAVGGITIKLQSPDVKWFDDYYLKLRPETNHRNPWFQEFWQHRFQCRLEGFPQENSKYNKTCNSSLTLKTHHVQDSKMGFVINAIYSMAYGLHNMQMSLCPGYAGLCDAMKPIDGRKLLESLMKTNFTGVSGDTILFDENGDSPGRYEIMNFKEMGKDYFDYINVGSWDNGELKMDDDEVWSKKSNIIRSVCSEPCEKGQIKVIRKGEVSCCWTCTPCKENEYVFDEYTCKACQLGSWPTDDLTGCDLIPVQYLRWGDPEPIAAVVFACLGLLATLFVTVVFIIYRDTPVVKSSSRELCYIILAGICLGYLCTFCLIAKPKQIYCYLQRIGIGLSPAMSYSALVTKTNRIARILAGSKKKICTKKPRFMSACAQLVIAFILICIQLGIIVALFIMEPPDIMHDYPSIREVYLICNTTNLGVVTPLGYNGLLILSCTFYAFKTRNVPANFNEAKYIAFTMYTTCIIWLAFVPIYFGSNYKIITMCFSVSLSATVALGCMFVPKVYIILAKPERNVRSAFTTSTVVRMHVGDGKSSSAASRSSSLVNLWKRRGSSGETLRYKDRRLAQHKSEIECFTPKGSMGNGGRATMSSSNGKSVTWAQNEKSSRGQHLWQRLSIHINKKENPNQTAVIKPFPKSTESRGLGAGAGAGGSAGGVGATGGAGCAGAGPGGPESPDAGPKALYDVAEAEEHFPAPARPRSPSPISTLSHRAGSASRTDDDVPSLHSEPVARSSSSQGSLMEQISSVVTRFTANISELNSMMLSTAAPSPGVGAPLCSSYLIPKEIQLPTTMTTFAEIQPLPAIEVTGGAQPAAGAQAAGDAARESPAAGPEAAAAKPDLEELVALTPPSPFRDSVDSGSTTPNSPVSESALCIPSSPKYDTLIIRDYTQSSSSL

pIC50 | SMILES
5.14 | Cc1cccc(NC(=O)c2cc(-c3cccc(C#N)c3)ccn2)n1
4.91 | Cc1cccc(NC(=O)c2ccc(-c3ccccn3)cn2)n1
6.80 | Cc1cccc(NC(=O)c2cc(-c3cc(F)cc(F)c3)ccn2)n1
